Data on two molecules can be found in patent US9388123B2, “LSD1-selective inhibitor having lysine structure” (KYOTO UNIVERSITY, priority 2012, dated 2016).

Where a name gives a salt, the structure may show the parent alone. Bounds are passed on as bounds.

Assay [1] concerns the target T1, monoamine oxidase B (MAO-B) (Homo sapiens, UniProt P27338).
T1 construct: purchased Sigma-Aldrich
T1 sequence (P27338 1-520): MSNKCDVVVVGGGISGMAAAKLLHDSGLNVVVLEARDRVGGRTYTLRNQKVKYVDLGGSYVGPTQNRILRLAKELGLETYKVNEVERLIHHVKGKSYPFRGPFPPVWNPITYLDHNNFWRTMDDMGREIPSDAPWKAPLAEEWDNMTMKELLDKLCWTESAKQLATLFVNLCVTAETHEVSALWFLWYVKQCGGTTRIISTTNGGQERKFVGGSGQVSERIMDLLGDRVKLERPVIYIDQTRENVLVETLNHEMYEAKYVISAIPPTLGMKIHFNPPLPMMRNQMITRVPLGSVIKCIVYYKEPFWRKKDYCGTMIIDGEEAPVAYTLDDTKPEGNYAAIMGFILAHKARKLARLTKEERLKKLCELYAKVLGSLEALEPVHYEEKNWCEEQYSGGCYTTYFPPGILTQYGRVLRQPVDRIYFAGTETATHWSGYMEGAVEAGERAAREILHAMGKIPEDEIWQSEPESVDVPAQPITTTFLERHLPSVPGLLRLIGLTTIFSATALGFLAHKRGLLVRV
Put plainly: Monoamine oxidase inhibition test (MAO-Glo assay kit). The note with it: room temperature, 1 hour. In kind it is biochemical.
Method: To the reaction liquid was added 50 μL of a luciferin detection reagent, and the mixture was subjected to a reaction at room temperature for 20 minutes.

In another assay the test system is M7. Description: Leukemia cell growth inhibition evaluation (WST-8). It is filed as cell-based. To be noted: Homo sapiens; day 3 (72-hour culture); read-out: Human leukemia cell line GI50 (μM) M7. The procedure, abridged: (§1)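 Seed 5,000 cells per well, add compound diluted in medium (final 0–50 μM, same DMSO level), and culture under CO2. At day 0 and days 1–3, incubate with WST-8 for 1 h, then read 450 nm minus 595 nm, subtracting a medium-only blank.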

For the next assay, the system named is K562. Put plainly: Leukemia cell growth inhibition evaluation (WST-8). The note with it: Homo sapiens, day 3 (72-hour culture), read-out: Human leukemia cell line GI50 (μM) K562. It is filed as cell-based. The procedure, abridged:
as §1

A further assay has as its system MDS-L. Description: Leukemia cell growth inhibition evaluation (WST-8). It is filed as cell-based. The note with it: Homo sapiens; day 3 (72-hour culture); read-out: Human leukemia cell line GI50 (μM) MDS-L. The procedure, abridged:
as §1

Assay [2] relates to MLL/SEPT6 leukemia cell line. Description: Leukemia cell growth inhibition evaluation (WST-8). The note with it: Mus musculus; day 3 (72-hour culture); read-out: Mouse MLL-fusion leukemia cell line GI50 (μM) MLL/SEPT6. It is filed as cell-based. A digest of the protocol: as §1
In another assay the test system is THP1. Description: Leukemia cell growth inhibition evaluation (WST-8). It is filed as cell-based. The note with it: Homo sapiens, THP-1; day 3 (72-hour culture); read-out: Human leukemia cell line GI50 (μM) THP1. A digest of the protocol:
as §1

The next assay deals with HEL. Description: Leukemia cell growth inhibition evaluation (WST-8). It is filed as cell-based. The note with it: Homo sapiens, day 3 (72-hour culture), read-out: Human leukemia cell line GI50 (μM) HEL. A digest of the protocol:
as §1

In assay [1], `O=C(N[C@@H](CCCCNC1CC1c1ccccc1)C(=O)NCc1ccccc1)c1ccc(-c2ccccc2)cc1` (stereo partly drawn) [Example 8, 2-[N-(4-Phenylbenzenecarbonyl)]amino-6-(trans-2-phenylcyclopropan-1-amino)-N-benzylhexanamide Hydrochloride] had a half-inhibitory concentration (IC50) greater than 100 µM. The GI50 was roughly 6 µM with M7; 3.2 µM with K562; less than 1.3 µM with MDS-L; 4 to 5 µM in assay [2]; 5 to 6 µM in the assay on THP1; less than 1.3 µM in the assay on HEL.

Consider `O=C(N[C@@H](CCCCNC1CC1c1ccccc1)C(=O)NCc1cccc(C(F)(F)F)c1)c1ccc(-c2ccccc2)cc1` (stereo partly drawn) [Example 19, 2-[N-(4-Phenylbenzenecarbonyl)]amino-6-(trans-2-phenylcyclopropan-1-amino)-N-(3-trifluoromethylbenzyl)hexanamide Hydrochloride], for which the half-maximal inhibitory concentration (IC50) in assay [1] was greater than 100 µM. Moreover, the GI50 was less than 1.3 µM in the assay on MDS-L, 2.5 to 5 µM in assay [2], 5 to 10 µM in the assay with THP1 and roughly 5 µM in the assay on HEL.
